Data reported in patent US20240252549A1, “COMPOSITIONS AND METHODS TO TRANSFECT, TEST, AND TREAT SKIN CELLS” (The Regents of the University of Michigan, priority 2021, published 2024).
“Also recorded” adds a separate entry of the source.

Tests used:
IFNK = IFNK mRNA expression in keratinocytes (qRT-PCR); assay type: cell-based, human; settings: all KO KCs treated, FIG. 3B
Description: (§1) Immortalized keratinocyte cell line, N/TERT1, was used with permission for generation of knock-out (KO) cell lines using non-homologous end joining via CRISPR/Cas9. […] N/TERTs were grown in Keratinocyte-SFM medium (ThermoFisher #17005-042) supplemented with 30 μg/ml bovine pituitary extract, 0.2 ng/ml epidermal growth factor, and 0.3 mM calcium chloride (2).
(§2) CRISPR KO KCs were generated as previously described (3). In brief, Single-guide RNA (sgRNA) target sequence was developed using a web interface for CRISPR design (https://portals.broadinstitute.org/gpp/public/analysis-tools/sgrna-design). Synthetic sgRNA target sequences were inserted into a cloning backbone, pSpCas9 (BB)-2A-GFP (PX458) (Addgene plasmid #48138) and then cloned into competent E. coli (ThermoFisher #C737303). Proper insertion was validated by Sanger sequencing. […] Cells were then genotyped and analyzed by Sanger sequencing.
(§3) RNA extraction, qRT-PCR and RNA-Sequencing were performed following the protocol published earlier (3). […] We used STAR to align RNA-seq reads to the human genome, using annotations of GENCODE as gene model. HTSeq was used to quantify gene expression levels; normalization and differential expression analysis were performed by DESeq2.

MX1 = MX1 (interferon-stimulated gene) mRNA expression in keratinocytes (qRT-PCR); assay type: cell-based, human; settings: all KO KCs treated, FIG. 7
Description: as §1, §2, §3

With Nc1ncn([C@H]2C[C@H](O)[C@@H](CO)O2)c(=O)n1 [5-dAza-c] the “IFNK mRNA expression in CRISPR-cas9 generated KO keratinocytes after demethylating agent” value (IFNK) was “Reversal; also recorded: significant increase” and the “MX1 mRNA expression in CRISPR-cas9 generated KO keratinocytes after demethylating agent” value (MX1) was “significant increase”.
